Measurements taken from ChEMBL document CHEMBL1157610, “Bis(morpholino-1,3,5-triazine) derivatives: potent adenosine 5'-triphosphate competitive phosphatidylinositol-3-kinase/mammalian target of rapamycin inhibitors: discovery of compound 26 (PKI-587), a highly efficacious dual inhibitor” (J Med Chem, 2010).
≈ marks a conversion by molar mass, not a printed value. Calls of active or inactive are those of the source. The calls are words filed in the database; no cut-off is given here.

What was measured:
[1] = Solubility at pH 7.4; assay type: physicochemical; conditions: buffer
[2] = target: Phosphatidylinositol 4,5-bisphosphate 3-kinase catalytic subunit gamma isoform (Homo sapiens, UniProt P48736)
MDA-MB-361 [3] = assay: cells; conditions: Homo sapiens
cells = conditions: Homo sapiens, PC3MM2
[4] = target: Serine/threonine-protein kinase mTOR (Homo sapiens, UniProt P42345)
[5] = Membrane permeability at pH 7.4 by PAMPA assay; assay type: ADME; conditions: read-out: permeability
[6] = target: Phosphatidylinositol 4,5-bisphosphate 3-kinase catalytic subunit alpha isoform (Homo sapiens, UniProt P42336)
[7] = AUC (0 to infinity) in mouse at 25 mg/kg, iv; assay type: ADME, organism-based; design: dose 25 mg/kg, route intravenous, time infinity; conditions: plasma
MDA-MB-361 [8] = assay: Induction of PARP cleavage in human MDA-MB-361 cells xenografted mouse model upto 18 hrs; assay type: functional, cell-based
[9] = target: Glycogen synthase kinase-3 (Homo sapiens) (UniProt P49840+P49841); assay: Inhibition of GSK3 kinase phosphorylation in human MDA-MB-361 cells by Western blotting; assay type: cell-based
[10] = target: RAC-alpha serine/threonine-protein kinase (Homo sapiens) (UniProt P31749); assay: Inhibition of Akt S473 phosphorylation in human MDA-MB-361 cells xenografted mouse model upto 36 hrs; assay type: cell-based
[11] = Volume of distribution at steady state in mouse at 25 mg/kg, iv; assay type: ADME, organism-based; design: dose 25 mg/kg, route intravenous; conditions: in vivo, read-out: Vdss
[12] = […] in mouse at 25 mg/kg, iv; assay type: ADME, organism-based; design: dose 25 mg/kg, route intravenous; conditions: in vivo
[13] = target: Proline-rich AKT1 substrate 1 (Homo sapiens) (UniProt Q96B36); assay: Inhibition of PARS40 phosphorylation in human MDA-MB-361 cells by Western blotting; assay type: cell-based
Mus musculus [14] = assay: Antitumor activity against human MDA-MB-361 cells xenografted mouse model assessed as maximum tolerated single dose; assay type: functional
[15] = Half life in mouse at 25 mg/kg, iv; assay type: ADME, organism-based; design: dose 25 mg/kg, route intravenous; conditions: in vivo
MDA-MB-361 [16] = assay: Antitumor activity against human MDA-MB-361 cells xenografted mouse model assessed as reduction in tumor volume at 20 mg/kg, iv on day 1, 5, 9; assay type: functional, organism-based; design: dose 20 mg/kg
[17] = Plasma clearance in mouse at 25 mg/kg, iv; assay type: ADME, organism-based; design: dose 25 mg/kg, route intravenous
[18] = Last AUC in mouse at 25 mg/kg, iv; assay type: ADME, organism-based; design: dose 25 mg/kg, route intravenous; conditions: in vivo
Mus musculus [19] = assay: Antitumor activity against human MDA-MB-361 cells xenografted mouse model assessed as minimum effective dose; assay type: functional; conditions: read-out: MED
[20] = target: RAC-alpha serine/threonine-protein kinase (Homo sapiens) (UniProt P31749); assay: Inhibition of Akt T308 phosphorylation in human MDA-MB-361 cells xenografted mouse model upto 36 hrs; assay type: cell-based
[21] = target: T1, Nitric oxide synthase 3 (Homo sapiens) (UniProt P29474); assay: Inhibition of eNOS phosphorylation in human MDA-MB-361 cells by Western blotting; assay type: cell-based
T1 sequence (whole entry): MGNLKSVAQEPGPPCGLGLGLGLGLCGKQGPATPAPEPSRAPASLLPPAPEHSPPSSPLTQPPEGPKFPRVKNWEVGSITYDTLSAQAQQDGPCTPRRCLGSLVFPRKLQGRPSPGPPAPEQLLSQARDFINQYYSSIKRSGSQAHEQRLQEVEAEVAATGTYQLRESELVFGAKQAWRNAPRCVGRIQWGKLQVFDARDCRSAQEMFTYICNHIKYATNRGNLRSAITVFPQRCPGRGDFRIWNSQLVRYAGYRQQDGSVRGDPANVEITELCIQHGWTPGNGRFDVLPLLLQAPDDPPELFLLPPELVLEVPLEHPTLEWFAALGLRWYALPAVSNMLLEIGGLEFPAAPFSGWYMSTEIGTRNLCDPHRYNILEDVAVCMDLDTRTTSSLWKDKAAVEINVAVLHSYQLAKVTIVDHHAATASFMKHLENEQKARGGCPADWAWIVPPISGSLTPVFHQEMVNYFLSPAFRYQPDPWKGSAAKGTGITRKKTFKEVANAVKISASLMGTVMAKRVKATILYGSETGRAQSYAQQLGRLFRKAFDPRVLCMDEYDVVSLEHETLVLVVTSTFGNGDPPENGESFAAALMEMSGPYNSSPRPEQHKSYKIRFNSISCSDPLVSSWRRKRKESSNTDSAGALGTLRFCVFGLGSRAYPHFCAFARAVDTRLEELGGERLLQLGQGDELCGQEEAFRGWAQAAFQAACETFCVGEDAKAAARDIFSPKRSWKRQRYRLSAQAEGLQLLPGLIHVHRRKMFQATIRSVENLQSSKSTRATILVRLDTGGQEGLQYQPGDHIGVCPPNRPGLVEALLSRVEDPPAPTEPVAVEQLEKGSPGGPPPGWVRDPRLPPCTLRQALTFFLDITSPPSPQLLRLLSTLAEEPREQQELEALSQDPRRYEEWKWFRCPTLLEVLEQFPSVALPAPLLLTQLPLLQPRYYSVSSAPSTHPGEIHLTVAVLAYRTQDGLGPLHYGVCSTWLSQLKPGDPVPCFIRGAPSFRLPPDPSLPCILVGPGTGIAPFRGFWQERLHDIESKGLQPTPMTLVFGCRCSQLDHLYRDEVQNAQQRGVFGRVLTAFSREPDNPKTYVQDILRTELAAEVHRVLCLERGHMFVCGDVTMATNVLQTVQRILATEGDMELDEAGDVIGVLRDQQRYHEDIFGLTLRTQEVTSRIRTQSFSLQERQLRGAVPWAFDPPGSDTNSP

NCI-H1975 = assay: Antitumor activity against human NCI-H1975 cells xenografted orthotopic mouse model assessed as survival at 25 mg/kg once weekly for 7 weeks relative to untreated control; assay type: functional

Chain of Phosphatidylinositol 4,5-bisphosphate 3-kinase catalytic subunit gamma isoform (P48736 whole entry, canonical isoform): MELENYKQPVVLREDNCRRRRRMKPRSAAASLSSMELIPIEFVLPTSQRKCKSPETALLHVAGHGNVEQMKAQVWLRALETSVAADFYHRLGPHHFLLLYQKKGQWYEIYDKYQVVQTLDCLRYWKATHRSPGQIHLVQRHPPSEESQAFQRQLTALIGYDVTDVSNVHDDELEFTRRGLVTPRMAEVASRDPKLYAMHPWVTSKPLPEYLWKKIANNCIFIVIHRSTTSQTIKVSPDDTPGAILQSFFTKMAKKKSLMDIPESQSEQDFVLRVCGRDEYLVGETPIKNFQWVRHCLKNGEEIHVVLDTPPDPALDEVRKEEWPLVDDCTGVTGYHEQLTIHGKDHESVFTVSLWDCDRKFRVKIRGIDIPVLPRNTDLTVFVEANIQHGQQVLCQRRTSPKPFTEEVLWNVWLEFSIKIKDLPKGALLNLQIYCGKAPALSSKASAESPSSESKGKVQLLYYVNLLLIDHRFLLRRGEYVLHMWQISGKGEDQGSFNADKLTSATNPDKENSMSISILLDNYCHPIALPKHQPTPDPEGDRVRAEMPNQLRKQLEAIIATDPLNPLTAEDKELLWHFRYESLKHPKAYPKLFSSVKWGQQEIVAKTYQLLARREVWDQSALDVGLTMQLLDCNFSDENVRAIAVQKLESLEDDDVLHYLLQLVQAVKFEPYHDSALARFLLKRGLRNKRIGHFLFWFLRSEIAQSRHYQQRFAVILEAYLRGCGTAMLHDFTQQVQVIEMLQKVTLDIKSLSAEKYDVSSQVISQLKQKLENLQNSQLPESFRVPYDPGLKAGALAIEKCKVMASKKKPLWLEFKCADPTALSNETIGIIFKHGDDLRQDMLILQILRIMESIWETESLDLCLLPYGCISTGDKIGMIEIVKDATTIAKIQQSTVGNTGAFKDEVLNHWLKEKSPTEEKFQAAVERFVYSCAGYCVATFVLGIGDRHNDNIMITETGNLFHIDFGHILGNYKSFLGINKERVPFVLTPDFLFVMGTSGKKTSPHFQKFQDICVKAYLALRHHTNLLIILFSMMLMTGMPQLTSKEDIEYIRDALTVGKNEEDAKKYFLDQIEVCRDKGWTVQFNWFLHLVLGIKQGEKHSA
Chain of Phosphatidylinositol 4,5-bisphosphate 3-kinase catalytic subunit alpha isoform (P42336 whole entry, canonical isoform): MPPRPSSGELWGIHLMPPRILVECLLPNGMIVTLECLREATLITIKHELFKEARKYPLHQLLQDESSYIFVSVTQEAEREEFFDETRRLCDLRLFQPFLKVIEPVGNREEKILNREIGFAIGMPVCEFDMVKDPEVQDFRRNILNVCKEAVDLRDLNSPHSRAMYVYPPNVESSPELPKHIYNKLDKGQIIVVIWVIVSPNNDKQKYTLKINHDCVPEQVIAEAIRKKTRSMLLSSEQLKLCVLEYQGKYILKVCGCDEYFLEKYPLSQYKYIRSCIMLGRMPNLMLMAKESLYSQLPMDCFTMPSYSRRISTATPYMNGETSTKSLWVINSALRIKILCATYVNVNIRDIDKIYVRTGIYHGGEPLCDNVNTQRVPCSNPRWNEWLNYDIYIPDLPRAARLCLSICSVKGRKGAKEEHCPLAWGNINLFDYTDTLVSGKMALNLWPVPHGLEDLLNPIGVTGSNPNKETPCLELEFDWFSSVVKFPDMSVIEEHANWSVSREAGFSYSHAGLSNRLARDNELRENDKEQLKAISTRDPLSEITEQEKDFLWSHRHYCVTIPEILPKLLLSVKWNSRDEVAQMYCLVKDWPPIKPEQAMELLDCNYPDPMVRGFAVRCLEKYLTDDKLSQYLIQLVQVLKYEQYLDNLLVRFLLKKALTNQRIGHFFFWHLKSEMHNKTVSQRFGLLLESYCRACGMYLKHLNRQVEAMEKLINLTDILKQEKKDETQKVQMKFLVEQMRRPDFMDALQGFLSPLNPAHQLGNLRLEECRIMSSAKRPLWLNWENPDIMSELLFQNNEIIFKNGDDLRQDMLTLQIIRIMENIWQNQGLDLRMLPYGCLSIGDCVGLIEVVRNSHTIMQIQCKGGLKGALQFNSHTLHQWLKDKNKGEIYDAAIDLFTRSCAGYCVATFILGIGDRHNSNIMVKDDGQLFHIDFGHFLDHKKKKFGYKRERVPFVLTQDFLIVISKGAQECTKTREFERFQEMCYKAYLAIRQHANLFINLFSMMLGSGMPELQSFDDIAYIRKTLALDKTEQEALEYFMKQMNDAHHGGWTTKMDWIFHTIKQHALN
Chain of RAC-alpha serine/threonine-protein kinase (Homo sapiens) (P31749 whole entry): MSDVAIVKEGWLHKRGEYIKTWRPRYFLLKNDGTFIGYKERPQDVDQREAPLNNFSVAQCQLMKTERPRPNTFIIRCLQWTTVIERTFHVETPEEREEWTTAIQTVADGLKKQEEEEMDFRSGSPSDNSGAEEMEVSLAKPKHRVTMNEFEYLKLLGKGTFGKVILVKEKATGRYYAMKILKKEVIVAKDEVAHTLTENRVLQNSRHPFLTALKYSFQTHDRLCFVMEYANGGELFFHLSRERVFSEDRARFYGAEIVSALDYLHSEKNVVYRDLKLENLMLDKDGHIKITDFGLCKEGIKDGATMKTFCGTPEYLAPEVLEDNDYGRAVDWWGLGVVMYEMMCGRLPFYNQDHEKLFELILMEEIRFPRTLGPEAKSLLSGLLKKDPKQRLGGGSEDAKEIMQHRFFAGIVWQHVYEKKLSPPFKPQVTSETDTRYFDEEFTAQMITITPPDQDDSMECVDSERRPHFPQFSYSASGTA
Chain of Glycogen synthase kinase-3 (Homo sapiens) (P49840 whole entry, looked up): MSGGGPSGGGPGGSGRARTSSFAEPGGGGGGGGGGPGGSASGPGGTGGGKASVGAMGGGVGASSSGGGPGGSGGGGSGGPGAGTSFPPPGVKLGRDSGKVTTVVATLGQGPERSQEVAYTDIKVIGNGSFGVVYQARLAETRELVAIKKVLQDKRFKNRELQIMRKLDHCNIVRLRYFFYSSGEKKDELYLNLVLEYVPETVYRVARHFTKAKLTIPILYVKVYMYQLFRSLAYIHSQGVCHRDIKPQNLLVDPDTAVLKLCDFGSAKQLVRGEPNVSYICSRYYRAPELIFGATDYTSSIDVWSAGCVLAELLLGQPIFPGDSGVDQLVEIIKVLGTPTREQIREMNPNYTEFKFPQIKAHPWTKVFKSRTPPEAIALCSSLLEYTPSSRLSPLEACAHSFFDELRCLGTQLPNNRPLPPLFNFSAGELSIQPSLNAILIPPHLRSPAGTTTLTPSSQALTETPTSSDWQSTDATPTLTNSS
Chain of Glycogen synthase kinase-3 (Homo sapiens) (P49841 whole entry, looked up): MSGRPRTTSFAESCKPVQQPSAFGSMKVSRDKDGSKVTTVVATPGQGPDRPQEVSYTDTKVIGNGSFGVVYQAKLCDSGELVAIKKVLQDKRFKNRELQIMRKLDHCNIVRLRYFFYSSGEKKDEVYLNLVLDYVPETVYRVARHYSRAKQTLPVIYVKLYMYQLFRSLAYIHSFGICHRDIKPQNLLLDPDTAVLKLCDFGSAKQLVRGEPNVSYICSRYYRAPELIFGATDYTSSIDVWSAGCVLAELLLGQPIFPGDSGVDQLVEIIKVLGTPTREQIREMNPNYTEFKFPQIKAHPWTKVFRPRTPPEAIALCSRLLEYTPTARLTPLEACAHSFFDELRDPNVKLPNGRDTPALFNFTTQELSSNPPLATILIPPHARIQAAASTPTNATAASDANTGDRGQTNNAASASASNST

Row | solubility [1] | IC50 [2] | IC50 (MDA-MB-361 [3]) | IC50 (cells) | IC50 [4] | Papp [5] | IC50 [6] | Structure (SMILES) | further results
1 | 1 µg/mL (≈ 1.93 µM) |  |  | 24 nM |  |  |  | CNC(=O)c1ccc(NC(=O)Nc2ccc(-c3nc(N4CCOCC4)nc(N4CCOCC4)n3)cc2)cc1 | 
2 |  |  | 118 nM | 193 nM | 3.9 nM | 1 ×10⁻⁶ cm/s | 6.5 nM | O=C(Nc1ccc(F)cc1)Nc1ccc(-c2nc(N3CCOCC3)nc(N3CCOCC3)n2)cc1 | 
3 | 1 µg/mL (≈ 1.92 µM) |  | 115 nM | 45 nM |  | 0.6 ×10⁻⁶ cm/s |  | COC(=O)c1ccc(NC(=O)Nc2ccc(-c3nc(N4CCOCC4)nc(N4CCOCC4)n3)cc2)cc1 | 
4 | 52 µg/mL (≈ 103 µM) |  | 816 nM | 28 nM | 1.5 nM |  |  | O=C(Nc1ccc(C(=O)O)cc1)Nc1ccc(-c2nc(N3CCOCC3)nc(N3CCOCC3)n2)cc1 | 
5 |  |  | 45 nM | 43 nM | 1.2 nM | 1.4 ×10⁻⁶ cm/s |  | O=C(Nc1ccncc1)Nc1ccc(-c2nc(N3CCOCC3)nc(N3CCOCC3)n2)cc1 | 
6 |  |  |  | 92 nM | 1.2 nM | 0.5 ×10⁻⁶ cm/s | 1.7 nM | O=C(Nc1ccc(-c2nc(N3CCOCC3)nc(N3CCOCC3)n2)cc1)Nc1cccnc1 | 
7 | 2 µg/mL (≈ 4.28 µM) |  |  | 218 nM |  | 2.4 ×10⁻⁶ cm/s |  | O=C(Nc1ccc(-c2nc(N3CCOCC3)nc(N3CCOCC3)n2)cc1)Nc1cccs1 | 
8 | 1 µg/mL (≈ 2.02 µM) |  | 407 nM | 293 nM | 6.7 nM |  |  | O=C(Nc1ccc(Cl)cc1)Nc1ccc(-c2nc(N3CCOCC3)nc(N3CCOCC3)n2)cc1 | 
9 | 1 µg/mL (≈ 2.16 µM) |  | 38 nM | 21 nM |  |  |  | O=C(Nc1ccc(-c2nc(N3CCOCC3)nc(N3CCOCC3)n2)cc1)Nc1ccnnc1 | 
10 |  |  | 56 nM | 107 nM | 3.9 nM | 0.2 ×10⁻⁶ cm/s |  | O=C(Nc1ccccc1)Nc1ccc(-c2nc(N3CCOCC3)nc(N3CCOCC3)n2)cc1 | 
11 |  |  | 200 nM | 364 nM |  | 5.6 ×10⁻⁶ cm/s |  | Cc1ccc(NC(=O)Nc2ccc(-c3nc(N4CCOCC4)nc(N4CCOCC4)n3)cc2)cc1 | 
12 |  |  | 30 nM | 30 nM |  | 0.2 ×10⁻⁶ cm/s |  | O=C(Nc1ccc(CO)cc1)Nc1ccc(-c2nc(N3CCOCC3)nc(N3CCOCC3)n2)cc1 | 
13 |  | 21.5 nM | 36 nM | 39 nM | 1.8 nM |  | 1.5 nM | O=C(Nc1ccc(CCO)cc1)Nc1ccc(-c2nc(N3CCOCC3)nc(N3CCOCC3)n2)cc1 | 

Further lines, the compound ahead of its results:

Row | Structure (SMILES) | solubility [1] | IC50 [2] | IC50 (MDA-MB-361 [3]) | IC50 (cells) | IC50 [4] | Papp [5] | IC50 [6] | further results
14 | CN(C)CCNC(=O)c1ccc(NC(=O)Nc2ccc(-c3nc(N4CCOCC4)nc(N4CCOCC4)n3)cc2)cc1 | 7 µg/mL (≈ 12.2 µM) | 8 nM | 3 nM | 11 nM | 0.5 nM | 0.1 ×10⁻⁶ cm/s | 0.4 nM | 
15 | CN1CCN(C(=O)c2ccc(NC(=O)Nc3ccc(-c4nc(N5CCOCC5)nc(N5CCOCC5)n4)cc3)cc2)CC1 |  | 9 nM | 10 nM | 13 nM | 1.4 nM |  | 0.5 nM | 
16 | CCNC(=O)Nc1ccc(-c2nc(N3CCOCC3)nc(N3CCOCC3)n2)cc1 | 1 µg/mL (≈ 2.42 µM) |  |  |  | 10 nM | 0.7 ×10⁻⁶ cm/s |  | 
17 | O=C(Nc1ccc(-c2nc(N3CCOCC3)nc(N3CCOCC3)n2)cc1)NN1CCCCC1 | 100 µg/mL (≈ 213 µM) | 7470 nM |  |  | 460 nM | 0.01 ×10⁻⁶ cm/s | 1520 nM | 
18 | CNC(=O)Nc1ccc(-c2nc(N3CCOCC3)nc(N3CCOCC3)n2)cc1 |  | 789 nM |  |  | 11.3 nM |  | 350 nM | 
19 | O=C(Nc1ccc(-c2nc(N3CCOCC3)nc(N3CCOCC3)n2)cc1)Nc1ccc(F)cc1F | 1 µg/mL (≈ 2.01 µM) |  | 794 nM | 5630 nM |  |  |  | 
20 | CN(C)C1CCN(C(=O)c2ccc(NC(=O)Nc3ccc(-c4nc(N5CCOCC5)nc(N5CCOCC5)n4)cc3)cc2)CC1 [GEDATOLISIB] | 14 µg/mL (≈ 22.7 µM) |  |  |  |  | 0.1 ×10⁻⁶ cm/s |  | AUC(0-inf) [7]: 57900 ng·h/mL; Activity (MDA-MB-361 [8]): Active; Activity [9]: Active; Activity [10]: Active; Vd [11]: 7.2 L/kg; MRT [12]: 16.7 h; Activity [13]: Active; MTD (Mus musculus [14]): 30 mg/kg; half-life [15]: 14.4 h; Activity (MDA-MB-361 [16]): Active; clearance [17]: 7 mL/min/kg; AUC [18]: 42600 ng·h/mL; minimal effective dose (Mus musculus [19]): 3 mg/kg; Activity [20]: Active; Activity [21]: Active; Activity (NCI-H1975): 90%
21 | O=C(Nc1ccc(C(=O)N2CCC(N3CCCCC3)CC2)cc1)Nc1ccc(-c2nc(N3CCOCC3)nc(N3CCOCC3)n2)cc1 | 31 µg/mL (≈ 47.3 µM) |  | 3 nM | 7 nM | 0.7 nM |  |  | 
22 | CN(C)CCN(C)C(=O)c1ccc(NC(=O)Nc2ccc(-c3nc(N4CCOCC4)nc(N4CCOCC4)n3)cc2)cc1.Cl | 9 µg/mL | 9 nM | 9.8 nM | 18.3 nM | 0.6 nM | 0.03 ×10⁻⁶ cm/s |  | 
23 | O=C(Nc1ccc(C(=O)N2CCC(N3CCCC3)CC2)cc1)Nc1ccc(-c2nc(N3CCOCC3)nc(N3CCOCC3)n2)cc1 | 33.5 µg/mL (≈ 52.2 µM) | 10 nM | 3 nM | 8.3 nM | 0.8 nM |  | 0.7 nM | 
